These results are taken from US12338203B2 (TAISHO PHARMACEUTICAL CO., LTD., priority 2019, dated 2025).

The target of this experiment is T1, human LPAR1 (Homo sapiens, UniProt Q92633).
T1 construct: expressed in transfected cells
T1 sequence (Q92633 whole entry): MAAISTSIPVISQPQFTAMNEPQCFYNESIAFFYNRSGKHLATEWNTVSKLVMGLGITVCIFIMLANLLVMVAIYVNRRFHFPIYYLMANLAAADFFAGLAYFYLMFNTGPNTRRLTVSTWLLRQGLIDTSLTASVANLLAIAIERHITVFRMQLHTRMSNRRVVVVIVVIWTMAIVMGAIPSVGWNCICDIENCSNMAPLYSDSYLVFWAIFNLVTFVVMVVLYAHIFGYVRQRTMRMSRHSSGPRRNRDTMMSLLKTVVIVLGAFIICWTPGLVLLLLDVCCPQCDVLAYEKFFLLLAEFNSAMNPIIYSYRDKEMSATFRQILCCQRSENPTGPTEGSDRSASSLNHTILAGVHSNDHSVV
Nature of the experiment: Test Example 1: antagonism against response of LPA-induced increase in intracellular Ca2+ concentration in RH7777 cells stably expressing human LPAR1. The class given is cell-based. Conditions: RH7777 cells stably expressing human LPAR1; Fluo-4 fluorescence, FDSS6000; read-out: IC50 value (concentration producing 50% antagonism against response of LPA-induced increase in intracellular Ca2+ concentration) (converted). Put shortly: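 RH7777 cells stably transfected with human LPAR1 were preincubated with test compound 30 min at 37 °C in HBSS/20 mM HEPES/probenecid/0.05% BSA buffer, pH 7.4, then LPA-stimulated.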
On to `C=Cc1c(OCC)cc(C(C)N(CCCCc2ccccc2)C(=O)NC2(C(=O)O)CC(F)(F)C2)cc1OCC` (centres unmarked) [Example 1-53], for which the IC50 is 3 nM.
In the case of `CCOc1cc([C@@H](C)N(CCCCc2ccccc2)C(=O)NC2(C(=O)O)CCOCC2)cc(OCC)c1C1CC1` [Example 1-155] it was 0.997 nM; in that of `CCOc1cc([C@@H](C)N(CCO[C@@H](C)c2ccccc2)C(=O)NC2(C(=O)O)CC(F)(F)C2)c(Cl)c(OCC)c1C(C)=O` [Example 5-32], 2.04 nM; in that of `CCOc1cc(C(C)N(CCCCc2ccccc2)C(=O)NC2(C(=O)O)CC(F)(F)C2)cc(OCC)c1C(O)CC` (centres unmarked) [Example 1-33], 7.13 nM.
In the case of `CCOc1c(C(C)=O)ccc([C@@H](C)N(CCO[C@H](C)c2ccccc2)C(=O)NC2(C(=O)O)CC(OC)C2)c1C` (some centres unmarked) [Example 4-154] it was 3.68 nM.
In the case of `CCOc1cc([C@@H](C)N(CCOCc2ccccc2)C(=O)NC2(C(=O)O)CC(OC)C2)cc(OCC)c1C(C)=O` (some centres unmarked) [Example 4-107] it was 4.08 nM; in that of `CCOc1cc([C@@H](C)N(CCCc2ccccc2)C(=O)NC2(C(=O)O)CC(F)(F)C2)cc(OCC)c1C(C)=O` [Example 4-35, 1-({[(1R)-1-(4-Acetyl-3,5-Diethoxyphenyl)Ethyl](3-Phenylpropyl) Carbamoyl}Amino)-3,3-Difluorocyclobutane-1-Carboxylic Acid], 2.26 nM; in that of `CCOc1cc([C@@H](C)N(CCCCc2ccccc2)C(=O)NC2(C(=O)O)CC(OCC)C2)cc(OCC)c1C(C)O` (some centres unmarked) [Example 1-98], 4.33 nM.
For the molecule `CCOc1cc([C@@H](C)N(CCCCc2ccccc2)C(=O)NC2CC(C(=O)O)N(C(C)=O)C2)cc(OCC)c1C(C)=O` (some centres unmarked) [Example 1-163], the IC50 is 20.5 nM.
In the case of `CCOc1cc(C(C)N(CCCCc2ccccc2)C(=O)NC2(C(=O)O)CC(F)(F)C2)cc(OCC)c1C1(O)CC1` (centres unmarked) [Example 1-37] it was 3.45 nM; in that of `CCOc1cc([C@H](C)N(CCCCc2ccccc2)C(=O)NC2(C(=O)O)CC(F)(F)C2)cc(OCC)c1C(C)=O` [Example 1-31, 1-({[(1S)-1-(4-Acetyl-3,5-Diethoxyphenyl)Ethyl](4-Phenylbutyl) Carbamoyl}Amino)-3,3-Difluorocyclobutane-1-Carboxylic Acid], 177 nM; in that of `COc1cc(C(C)N(CCOCc2ccccc2)C(=O)NC2(C(=O)O)CCC2)cc(OC)c1C(C)=O` (centres unmarked) [Example 5-130], 7.9 nM.
Regarding `CCOc1c(C(C)=O)ccc([C@@H](C)N(CCO[C@H](C)c2ccccc2)C(=O)NC2(C(=O)O)CC(OCC)C2)c1C` (some centres unmarked) [Example 4-157], the IC50 is 3.71 nM.
For `CCOc1cc(C(C)N(CCOCc2ccccc2)C(=O)NC2(C(=O)O)CCOCC2)c(C)c(OCC)c1C(C)=O` (centres unmarked) [Example 5-226], the IC50 was 4 nM.
In the case of `CCOc1cc([C@@H](C)N(CCCCc2ccccc2)C(=O)NC2CCC2C(=O)O)cc(OCC)c1C(C)=O` (some centres unmarked) [Example 1-126] it was 3.13 nM; in that of `CCOc1cc(C(C)N(CCCCc2ccccc2)C(=O)NC2(C(=O)O)CC(F)(F)C2)cc(COC)c1C` (centres unmarked) [Example 1-74], 7.15 nM; in that of `CCOc1c(C(C)=O)ccc([C@@H](C)N(CCCCc2ccccc2)C(=O)NC2(C(=O)O)CC(OC)C2)c1C` (some centres unmarked) [Example 1-94], 11.8 nM.
Consider `CCOc1cc(C(C)N(CCCCc2ccccc2)C(=O)NC2(P(=O)(O)O)CCCC2)cc(OCC)c1C` (single isomer, unassigned) [Example 8-1, [1-({[1-(3,5-Diethoxy-4-Methylphenyl)Ethyl](4-Phenylbutyl) Carbamoyl}Amino)Cyclopentyl]Phosphonic Acid], for which the IC50 was 52.1 nM.
Under `CCOc1cc(C(C)N(CCCCc2ccccc2)C(=O)NC2(C(=O)O)CC(F)(F)C2)cc2c1cnn2CC` (centres unmarked) [Example 5-99, 1-({[1-(4-Ethoxy-1-Ethyl-1H-Indazol-6-Yl)Ethyl](4-Phenylbutyl) Carbamoyl}Amino)-3,3-Difluorocyclobutane-1-Carboxylic Acid] stands 5.6 nM.
With `COc1cc(C(C)N(CCOCc2ccccc2)C(=O)NC2(C(=O)O)CC(F)(F)C2)c(Cl)c(OC)c1C1CC1` (centres unmarked) [Example 5-144], the IC50 is 1.11 nM.
